Laboratory results from the supplement of paper PMC5908809.

What was measured:
[1] = test system: normal NK cells expanded with K562-aAPC; experiment: drug sensitivity score (DSS) (DSS units); higher = more sensitive; extreme values may be limits of the assay; settings: 72 h; IL-2 2.5 ng/mL
Protocol: (§1)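 Drug sensitivity and resistance testing on K562-aAPC-expanded normal NK cells: 5 concentrations (10-fold steps over a 10,000-fold range), 72 h at 37 °C, viability by CellTiter-Glo normalised to DMSO and benzethonium chloride controls; DSS from the fitted curve.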

[2] = test system: NK-YS (IL-2 2.5 ng/mL); experiment: as above; settings: 72 h
[3] = test system: KHYG-1 (IL-2 2.5 ng/mL); experiment: as above; settings: 72 h
[4] = test system: normal primary NK cells, pool 1 (3 donors), resting (IL-2 0 ng/mL); experiment: as above; settings: 72 h
[5] = test system: normal primary NK cells, pool 1 (3 donors) (IL-2 2.5 ng/mL); experiment: as above; settings: 72 h
[6] = test system: YT (IL-2 2.5 ng/mL); experiment: as above; settings: 72 h
[7] = test system: DERL-7 (IL-2 2.5 ng/mL); experiment: as above; settings: 72 h
[8] = test system: KAI3 (IL-2 2.5 ng/mL); experiment: as above; settings: 72 h
[9] = test system: NKL (IL-2 2.5 ng/mL); experiment: as above; settings: 72 h
[10] = test system: SNK-6 (IL-2 2.5 ng/mL); experiment: as above; settings: 72 h
[11] = test system: IMC-1 (IL-2 20 ng/mL); experiment: as above; settings: 72 h
[12] = test system: normal primary NK cells, pool 3 (3 donors) (IL-2 2.5 ng/mL); experiment: as above; settings: 72 h
[13] = test system: NK-92 (IL-2 2.5 ng/mL); experiment: as above; settings: 72 h
[14] = test system: normal primary NK cells, pool 2 (3 donors) (IL-2 2.5 ng/mL); experiment: as above; settings: 72 h
[15] = test system: NK-YS (IL-2 2.5 ng/mL); experiment: percent inhibition of viability; higher = more inhibition; settings: 72 h
[16] = test system: KHYG-1 (IL-2 2.5 ng/mL); experiment: as above; settings: 72 h
[17] = test system: normal primary NK cells, pool 1 (3 donors), resting (IL-2 0 ng/mL); experiment: as above; settings: 72 h
[18] = test system: normal primary NK cells, pool 1 (3 donors) (IL-2 2.5 ng/mL); experiment: as above; settings: 72 h
[19] = test system: YT (IL-2 2.5 ng/mL); experiment: as above; settings: 72 h
[20] = test system: DERL-7 (IL-2 2.5 ng/mL); experiment: as above; settings: 72 h
[21] = test system: KAI3 (IL-2 2.5 ng/mL); experiment: as above; settings: 72 h
[22] = test system: NKL (IL-2 2.5 ng/mL); experiment: as above; settings: 72 h
[23] = test system: SNK-6 (IL-2 2.5 ng/mL); experiment: as above; settings: 72 h
[24] = test system: IMC-1 (IL-2 20 ng/mL); experiment: as above; settings: 72 h
[25] = test system: normal primary NK cells, pool 3 (3 donors) (IL-2 2.5 ng/mL); experiment: as above; settings: 72 h
[26] = test system: NK-92 (IL-2 2.5 ng/mL); experiment: as above; settings: 72 h
[27] = test system: normal primary NK cells, pool 2 (3 donors) (IL-2 2.5 ng/mL); experiment: as above; settings: 72 h
[28] = test system: normal NK cells expanded with K562-aAPC; experiment: as above; settings: 72 h, IL-2 2.5 ng/mL
Protocol: as §1

CC(C)c1c(C(=O)Nc2ccccc2)c(-c2ccccc2)c(-c2ccc(F)cc2)n1CC[C@@H](O)C[C@@H](O)CC(=O)O [Atorvastatin] (max concentration tested 10000 nM)
Settings	drug sensitivity score
[1]	0.92
[2]	14
[3]	5.76
[4]	2.71
[5]	0.79
[6]	9
[7]	4
[8]	3.95
[9]	17.2
[10]	2.14
[11]	9.38
[12]	0
[13]	2.7
[14]	1.06

percent inhibition of viability [%]
Settings	1 nM	10 nM	100 nM	1000 nM	10000 nM
[15]	0.24	1.58	11.9	64.8	103
[16]	1.48	-0.11	9.42	7.71	81.3
[17]	-1.6	-6.76	-4.51	2.54	45.6
[18]	-3.15	-14.1	-7.04	-6.72	27.1
[19]	0.23	1.11	4.51	22.4	99.1
[20]	-2.58	-0.16	-3.51	6.56	54.2
[21]	-7.62	-6.46	-2.5	3.32	63.8
[22]	-16	-12.1	14.8	83.8	102
[23]	-3.12	4.06	1.93	0.27	41.9
[24]	-2.01	0.19	4.44	25.6	99.2
[25]	-6.89	-6.08	-9.88	-12.8	4.72
[26]	-10.9	-15.5	4.4	-6.37	58.2
[27]	-7.16	-1.31	1.87	-2.86	29.2
[28]	-5.69	-0.26	-0.77	-4.84	28.3

CC(=O)OC[C@H]1O[C@@H]([S-])[C@H](OC(C)=O)[C@@H](OC(C)=O)[C@@H]1OC(C)=O.CCP(CC)CC.[Au+] [Auranofin] (max concentration tested 2500 nM)
Settings	drug sensitivity score
[1]	10.2
[2]	6.36
[3]	7.93
[4]	23.7
[5]	19.7
[6]	5.39
[7]	10.6
[8]	3.64
[9]	11.9
[10]	8.77
[11]	5.76
[12]	17.4
[13]	5.5
[14]	16.3

percent inhibition of viability [%]
Settings	0.25 nM	2.5 nM	25 nM	250 nM	2500 nM
[15]	-7.49	-6.18	-3.6	9.95	84.9
[16]	0.4	-2.1	1.71	13.8	104
[17]	5.52	-6.64	48.2	92.5	99.7
[18]	-6.81	-8.13	21.6	92.8	100
[19]	-4.83	-3.66	0.33	-3.85	101
[20]	-0.63	7.06	8.16	44.6	98.2
[21]	-6.77	-2.1	-2.36	-3.59	71.4
[22]	-10.3	-9.31	-24.6	52.6	106
[23]	13.5	17.1	4.84	33.2	86
[24]	-3.33	-1.53	4.17	1.71	99.3
[25]	-4.42	1.03	18.4	81.8	101
[26]	-2.57	-12.2	-2.23	-0.04	98.4
[27]	-13.4	-6.97	8.16	82.7	101
[28]	1.15	-1.41	-0.3	33.5	100

CNC(=O)c1ccccc1Sc1ccc2c(/C=C/c3ccccn3)n[nH]c2c1 [Axitinib] (max concentration tested 10000 nM)
Settings	drug sensitivity score
[1]	5.02
[2]	9.35
[3]	11
[4]	2.23
[5]	3.89
[6]	9.19
[7]	15.7
[8]	10.5
[9]	8.51
[10]	10.8
[11]	5.63
[12]	0.95
[13]	8.68
[14]	1.77

percent inhibition of viability [%]
Settings	1 nM	10 nM	100 nM	1000 nM	10000 nM
[15]	-3.68	-2.56	3.21	38.7	85
[16]	-2.88	-3.36	4.43	49.4	93.1
[17]	-14.3	9	2.7	0.6	42.6
[18]	-5.69	14.3	5.75	13.8	44.6
[19]	-2.15	-4.48	1.03	33	85
[20]	-3.47	7.74	27	64.5	94
[21]	2.52	-0.91	10.2	47.2	82
[22]	-1.55	-1.93	18.9	32.5	69.6
[23]	-4.55	-16.4	-11.7	55.8	78.6
[24]	-1.86	-0.66	0.71	4.7	89.3
[25]	-8.62	6.8	13	1.12	23
[26]	-13.6	-7.2	-14	24.3	90.7
[27]	-13.7	4.14	6.01	-6.27	42.8
[28]	-1.18	-2.54	-3.5	11.1	58.7

Nc1nc(Nc2ccc3c(c2)CC[C@@H](N2CCCC2)CC3)nn1-c1cc2c(nn1)-c1ccccc1CCC2 [BGB324] (max concentration tested 10000 nM)
Settings	drug sensitivity score
[1]	8.94
[2]	7.94
[3]	12.5
[4]	16
[5]	13.2
[6]	7.38
[7]	14.7
[8]	11.2
[9]	14.8
[10]	10.3
[11]	5.23
[12]	9.12
[13]	11.6
[14]	11.3

percent inhibition of viability [%]
Settings	1 nM	10 nM	100 nM	1000 nM	10000 nM
[15]	-2.01	-2.03	0.13	14.3	101
[16]	-2.69	-1.76	3.04	59	103
[17]	7.14	3.63	5.02	83.6	99.8
[18]	-3.33	-4.6	-5.97	66.2	99.8
[19]	-0.88	-5.6	-1.23	11	101
[20]	1.87	-0.37	13.9	68	101
[21]	-3.31	-2.86	2.2	43.9	101
[22]	6.99	-6.74	6.47	73.7	102
[23]	12.8	12.3	-18.1	34.5	99.7
[24]	-1.43	-0.15	0.68	-4.19	99.9
[25]	-9.08	-10.5	-10.5	23.1	99.8
[26]	-4.37	-8.81	-0.92	49	102
[27]	-7.98	-0.57	-5.73	45.8	100
[28]	-3.36	-11.5	-1.93	21.5	99.9

Cn1c(CCCC(=O)O)nc2cc(N(CCCl)CCCl)ccc21 [Bendamustine] (max concentration tested 10000 nM)
Settings	drug sensitivity score
[1]	4.02
[2]	4.15
[3]	0.29
[4]	4.14
[5]	2.59
[6]	0
[7]	0
[8]	1.09
[9]	8.66
[10]	5.85
[11]	1.24
[12]	3.81
[13]	0.59
[14]	3.11

percent inhibition of viability [%]
Settings	1 nM	10 nM	100 nM	1000 nM	10000 nM
[15]	-10.9	-2.18	8.61	4.45	63.6
[16]	-5.91	1.42	10.1	2.21	17.1
[17]	-1.75	6.06	-6.12	-12.6	88.2
[18]	-9.6	-0.97	-3.62	-12.8	60.6
[19]	-6.57	-3.19	7.12	-0.08	0
[20]	2.35	-0.75	-0.87	-0.14	8.22
[21]	-0.41	1.91	1.35	-4.7	30.8
[22]	-5.33	-10.8	5.76	27.8	88.6
[23]	-1.78	-2.24	14.2	17.1	67
[24]	-5.16	-3.14	0.53	1.92	25.3
[25]	-2.58	1.8	5.19	5.5	54.3
[26]	-10.3	-2.08	7.9	-10.7	24.9
[27]	-6.1	-4.8	1.7	1.54	54.5
[28]	3.13	1.48	-1.08	12.2	42.8
